Here are results for 14 molecules from patent publication US20230167073A1 (Teijin Pharma Limited, priority 2020, published 2023).

A value given as a limit tells only on which side of the number the result lay.

This experiment deals with T1, Human TRPC6 (Homo sapiens, UniProt Q9Y210).
T1 construct: expressed in transfected cells
T1 sequence (Q9Y210 1-931): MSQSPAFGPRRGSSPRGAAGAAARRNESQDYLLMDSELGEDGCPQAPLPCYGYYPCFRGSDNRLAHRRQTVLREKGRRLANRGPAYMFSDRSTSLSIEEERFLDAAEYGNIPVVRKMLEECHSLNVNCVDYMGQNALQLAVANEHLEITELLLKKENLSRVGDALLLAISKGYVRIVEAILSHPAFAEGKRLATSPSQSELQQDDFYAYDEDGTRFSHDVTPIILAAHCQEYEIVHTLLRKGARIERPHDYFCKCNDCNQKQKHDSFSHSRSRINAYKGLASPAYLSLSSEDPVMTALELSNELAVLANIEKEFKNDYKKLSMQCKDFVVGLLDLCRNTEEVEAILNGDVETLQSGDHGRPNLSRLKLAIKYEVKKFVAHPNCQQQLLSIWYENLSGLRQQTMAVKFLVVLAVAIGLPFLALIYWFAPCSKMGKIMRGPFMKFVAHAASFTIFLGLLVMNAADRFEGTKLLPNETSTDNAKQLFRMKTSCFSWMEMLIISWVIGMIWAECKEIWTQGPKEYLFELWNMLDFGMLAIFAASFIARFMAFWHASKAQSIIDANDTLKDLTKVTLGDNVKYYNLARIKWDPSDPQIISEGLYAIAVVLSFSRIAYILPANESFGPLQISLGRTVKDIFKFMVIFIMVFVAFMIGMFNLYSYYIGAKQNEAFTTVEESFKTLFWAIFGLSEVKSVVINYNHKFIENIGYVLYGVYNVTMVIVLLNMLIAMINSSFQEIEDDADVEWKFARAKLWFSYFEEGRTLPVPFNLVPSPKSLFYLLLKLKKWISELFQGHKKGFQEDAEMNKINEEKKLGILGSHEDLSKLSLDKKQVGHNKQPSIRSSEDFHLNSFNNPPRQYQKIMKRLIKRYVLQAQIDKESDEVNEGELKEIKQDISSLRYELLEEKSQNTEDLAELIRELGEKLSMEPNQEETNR
Briefly: Evaluation of TRPC6 channel inhibitory activity (1), FLIPR Calcium 5 Assay Kit, OAG stimulation (Compound Nos. 1-1293). It counts as cell-based. The note with it: Human TRPC6 stably-expressing cells, OAG 30 μM, FLIPR Calcium 5 Assay Kit; read-out: Inhibitory activity (pIC50 class) (converted). In outline:
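Calcium influx read by FLIPR fluorescence in cells stably expressing human TRPC6, dye-loaded 30 min. Compounds preincubated 20 min, then OAG stimulation at 30 μM final. Inhibition fitted by four-parameter logistic regression to give pIC50, reported as +/++/+++ categories.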
`Cc1nc(Oc2cc(C#N)ccc2-c2ncc(CN)cn2)cc(OC2CCC2)n1` [compound 788, 4-[5-(aminomethyl)pyrimidin-2-yl]-3-(6-cyclobutyloxy-2-methylpyrimidin-4-yl)oxybenzonitrile]: the IC50 was greater than 1000 nM.
On to `Cc1nc(Oc2cc(C#N)ccc2-n2cc([C@@H](O)CN)cn2)cc(-c2ccccc2C#N)n1` [compound 341, 4-[4-[(1R)-2-amino-1-hydroxyethyl]pyrazol-1-yl]-3-[6-(2-cyanophenyl)-2-methylpyrimidin-4-yl]oxybenzonitrile], for which the IC50 was less than 10 nM.
In the case of `Cc1nc(Oc2cc(C#N)ccc2-n2cc([C@H](O)CN)cn2)cc(-c2ccccc2C)n1` [compound 354, 4-[4-[(1S)-2-amino-1-hydroxyethyl]pyrazol-1-yl]-3-[2-methyl-6-(2-methylphenyl)pyrimidin-4-yl]oxybenzonitrile], the IC50 was 10 to 1000 nM.
The result for `Cc1nc(Oc2cc(C#N)ccc2-n2cc([C@@H](O)CN)cn2)cc(N2CCCC(F)(F)C2)n1` [Compound 257, 4-[4-[(1R)-2-amino-1-hydroxyethyl]pyrazol-1-yl]-3-[6-(3,3-difluoropiperidin-1-yl)-2-methylpyrimidin-4-yl]oxybenzonitrile] reads 10 to 1000 nM; that for `Cc1c(Oc2cc(C#N)ccc2-c2ncc(CN)cn2)cnn1CC(C)C` [compound 805, 4-[5-(aminomethyl)pyrimidin-2-yl]-3-[5-methyl-1-(2-methylpropyl)pyrazol-4-yl]oxybenzonitrile], 10 to 1000 nM.
Regarding `Cn1nc(C#N)cc1Oc1cc(C#N)ccc1-c1ccc(CCN)cn1` [compound 964, 5-[2-[5-(2-aminoethyl)pyridin-2-yl]-5-cyanophenoxy]-1-methylpyrazole-3-carbonitrile], the IC50 is 10 to 1000 nM.
The result for `Cc1nc(Oc2cc(C#N)ccc2-c2ccc(C(CN)c3ccsc3)cc2)cc(N2CCOCC2)n1` (centres unmarked) [Compound 72, 4-[4-(2-amino-1-thiophen-3-ylethyl)phenyl]-3-(2-methyl-6-morpholin-4-ylpyrimidin-4-yl)oxybenzonitrile] reads 10 to 1000 nM; that for `Cc1nc(COC(C)C)cn1Cc1cc(C#N)ccc1-c1ccc(CCN)cc1` [compound 1126, 4-[4-(2-aminoethyl)phenyl]-3-[[2-methyl-4-(propan-2-yloxymethyl)imidazol-1-yl]methyl]benzonitrile], greater than 1000 nM; that for `Cn1nc(-c2ccccn2)cc1Oc1cc(C#N)ccc1-c1ccc(CN)cn1` [compound 609, 4-[5-(aminomethyl)pyridin-2-yl]-3-(2-methyl-5-pyridin-2-ylpyrazol-3-yl)oxybenzonitrile], less than 10 nM.
The same measure for `N#Cc1ccc(-c2ccc(CN)cn2)c(Oc2cnnc(N3CCCC3)c2)c1` [compound 696, 4-[5-(aminomethyl)pyridin-2-yl]-3-(6-pyrrolidin-1-ylpyridazin-4-yl)oxybenzonitrile]: less than 10 nM; for `Cc1nc(-c2cncc(F)c2)cn1Cc1cc(C#N)ccc1-c1ncc(CCN)cn1` [compound 1194, 4-[5-(2-aminoethyl)pyrimidin-2-yl]-3-[[4-(5-fluoropyridin-3-yl)-2-methylimidazol-1-yl]methyl]benzonitrile]: greater than 1000 nM; for `N#Cc1ccc(-c2ccc(C(CN)C(F)F)cc2)c(Oc2cnnc(N3CCOCC3)c2)c1` (centres unmarked) [Compound 139, 4-[4-(3-amino-1,1-difluoropropan-2-yl)phenyl]-3-(6-morpholin-4 ylpyridazin-4-yl)oxybenzonitrile]: 10 to 1000 nM.
With `Cc1c(Oc2cc(F)ccc2-c2ncc(CCN)cn2)cnn1C(C)C` [compound 984, 2-[2-[4-fluoro-2-(5-methyl-1-propan-2-ylpyrazol-4-yl)oxyphenyl]pyrimidin-5-yl]ethanamine], the IC50 was 10 to 1000 nM.
The same measure for `Cn1nc(C2CC2)cc1Oc1cc(C#N)ccc1-c1ccc2ccnc(N)c2c1` [compound 452, 4-(1-aminoisoquinolin-7-yl)-3-(5-cyclopropyl-2-methylpyrazol-3-yl)oxybenzonitrile]: greater than 1000 nM.
